What was measured:
Type in all cases: cell-based, human
U1 and ACH-2 cells = experiment: Cell viability and proliferation (bromo-deoxy-uridine incorporation) of HIV-infected cell lines
tissue factor = experiment: Tissue factor production by endothelial cells (one-stage clotting assay)
Procedure: Endothelial cell monolayers were pretreated with LPG for 1 hour and stimulated with endotoxin. Cultured endothelial cells, when stimulated by endotoxin, expressed high amounts of tissue factor. […] The production of tissue factor (in culture supernatant) is determined by a one-stage clotting assay. Helin et. al., “Allogeneic Induction of the Human T-cell-instructed Monocyte Procoagulant Response is Rapid and is Elicited by HLA-DR,” J. Exp. Med. 158: 962-75 (1983), which is hereby incorporated by reference.
To further examine if LPG can inhibit other endothelial cell functions, it was determined whether LPG inhibits thrombosis. Since thrombosis is mediated by the release of tissue factor (“TF”) by endothelial cells, the ability of LPG to inhibit TF production was evaluated. Cultured endothelial cells when stimulated by endotoxin express TF as determined by a one-stage clotting assay. Helin et. al., “Allogeneic Induction of the Human T-cell-instructed Monocyte Procoagulant Response is Rapid and is Elicited by HLA-DR,” J. Exp. Med. 158: 962-75 (1983), which is hereby incorporated by reference. […] To explore whether this effect was agonist specific, another agonist, TNF-α which is known to up-regulate TF generation, was used.

TNF-α mRNA = TNF-α mRNA expression and stability after endotoxin

lipophosphoglycan [LPG]
percentages of viable cells (U1 and ACH-2 cells; cells treated or not treated with LPG): 98%
effect on cell proliferation (bromo-deoxy-uridine incorporation) (U1 and ACH-2 cells; each of the stimulation conditions): did not alter
effect on TNF-α induction of endothelial cell production of TF (tissue factor): no effect
effect on endotoxin-induction of TF (tissue factor; LPG 2 μM): completely abrogated
effect on endotoxin induction of TF production (tissue factor; LPG pretreatment 1 hour): dose-dependent inhibition
effect on endotoxin induction of TNF-α expression (TNF-α mRNA; LPG added 2 h after endotoxin): effective
effect on endotoxin induction of TNF-α expression (TNF-α mRNA; LPG added 4 h prior to addition of endotoxin): significantly suppressed
effect on TNF-α mRNA stability (TNF-α mRNA; actinomycin D, data not shown): minimal effect

Source: patent US6491922B1, “Methods and compounds for treating autoimmune and vascular disease” (Cornell Research Foundation, Inc., priority 1996, dated 2002)
